In patent US11679100B2, “Methods of enhancing immunity” (The Regents of the University of California, priority 2018, dated 2023):

Test system: LLC lung tumor
Test: LA1 treatment of subcutaneous LLC tumors
Format: in vivo, mice
Protocol: LA1 treatment of LLC: 7.5×10^5 LLC cells were injected subcutaneously (s.c.) into the right flank of syngeneic 6- to 8-week old WT or CD11b^−/− mice. At 5-8 days post tumor inoculation, tumor-bearing mice were divided into the following treatment groups: Vehicle (6% DMSO, 1% Tween-20 in saline), LA1 (6 mg/kg dissolved in vehicle). Vehicle and LA1 was administered by intraperitoneal injection (i.p.) daily. Tumor burden was evaluated 2-3 times a week by caliper measurements and tumor volumes were calculated using the equation (l^2×w)/2. Tumors were harvested at 3 weeks post-tumor inoculation, formalin fixed, cryopreserved in OCT, or collagenase-digested for flow cytometric analysis.
Immunohistochemistry—Tumor samples were collected and cryopreserved in O.C.T. Sections (5 μm) were fixed in 100% cold acetone, blocked with 8% normal goat serum for 2 hours, and incubated with primary antibodies at […] for 2 hours at room temperature. Sections were washed 3 times with PBS and incubated with fluorescent secondary antibodies. Primary antibodies where: F4/80 (BM8, eBioscience), CD4 (H129.19, BD Bioscience), CD8 (53-6.7, BD Bioscience), CD31 (MEC13.1, BD Bioscience), desmin (RB0914-P1, LabVision, Thermo Scientific), and anti-smooth muscle actin (SMA) (1A4, Sigma-Aldrich). Slides were counterstained with 4′,6-diamidino-2-phenylindole (DAPI) to identify nuclei. Immunofluorescence images were collected on a Nikon microscope (Eclipse TE2000-U) and analyzed using Metamorph image capture and analysis software (Version 6.3r5, Molecular Devices). Pixels/field or cell number/field were quantified in five 100× fields from 5 biological replicates. For LA1 studies, immunohistochemical staining was quantified by counting marker positive cells in 3 different areas analyzed at 40× using a light microscope for each tumor tissue (n=4−6). Tissues that were stained with fluorochrome conjugated secondary antibodies were counter stained with DAPI and analyzed using the Zeiss 700 LSM confocal microscope and Zen software (Carl Zeiss Group, Hartford, Conn.).
Alternatively, immunostaining was performed on formalin fixed, paraffin-embedded tumor tissues. Deparaffinized tissue sections (5 μm) were either stained with hemotoxylin-eosin or were subjected to antigen retrieval by steam heating in an acidic pH solution (Citrate-based, Vector Laboratories) prior to immune staining for α-SMA (clone 1A4, Fisher Scientific), MMP9 (polyclonal rabbit, Abcam), S100A8 (goat polyclonal (M-19), Santa Cruz), CD31 (clone RM0032-1D12, Abcam), or ARG1 (sc-18351, Santa Cruz) at 4° C. overnight. Sections were washed and incubated with the appropriate fluorochrome conjugated secondary antibody (Invitrogen Life Technologies, Grand Island, N.Y.) or biotinylated secondary antibodies diluted in blocking buffer for 1 hr. at RT. For sections that were stained with biotinylated secondary antibodies, signal development was accomplished by using the DAB Substrate Kit (Vector Laboratories).
Flow Cytometry Staining and Analysis—Single cell suspensions (10^6 cells in 100 μL total volume) were incubated with Aqua Live Dead fixable stain (Life Technologies, Carlsbad, Calif.), FcR-blocking reagent (BD Biosciences, San Jose, Calif.) and fluorescently labeled antibodies and incubated at 4° C. for 1 h. Primary antibodies were: BV605-F4/80 (clone BM8, Biolegend #123133, 1.25 μg/ml), Alexa 700-CD45 (clone 30-F11, eBioscience #56-0451, ×0.6 μg/ml), CD11b-APC (clone M1/70, eBioscience #17-0012, 0.3 μg/ml), FITC-Gr1 (clone RB6-8C5, eBioscience #11-5931, 3 μg/ml), eF780-CD3 (clone 145-2C11, eBioscience #47-0031, 5 μg/ml), PE-Dazzle-CD4 (clone RM4-5, Biolegend #100565, 0.4 μg/ml), and BV605-CD8 (clone 53-6.7, Biolegend #100743, 1.75 μg/ml). Multicolor FACS Analysis was performed on a BD Canto RUO 11 Color Analyzer. All data analysis was performed using the flow cytometry analysis program FloJo (Treestar).

O=C(O)c1ccc(-c2ccc(/C=C3\SC(=S)N(Cc4ccccc4)C3=O)o2)cc1 [LA1, leukadherin 1] was tested, and the “LLC lung tumor growth in Itgam-/- mice” value (LA1 6 mg/kg i.p. daily, Itgam-/- mice) was “not in Itgam−/− mice”, the “LLC lung tumor growth in WT mice” value (LA1 6 mg/kg i.p. daily, WT mice) was “inhibited murine LLC lung tumor growth in WT” and the “CD8+ T cells in tumors” value (LLC tumors) was “increased the presence of CD8+ T cells”. The “MHCII+ macrophages in tumors” value (LLC tumors) was “increased the presence of MHCII+ macrophages”, the “expression of S100A8 and MMP9 in CD11b+ cells” value (LLC tumors) was “inhibited expression of S100A8 and MMP9 in CD11b+ cells in LLC tumors” and the “numbers of SMA+ blood vessels in tumors” value (tumors of FIGS. 5G, 5I and 5J (CL66, MDA-MB-231, LLC)) was “decreasing the numbers of SMA+blood vessels”.
